pIC50: −log10 of the molar value. Structures can show the parent of a compound that is named as a salt. Where two headings read alike, the source gives them in different places.
Key:
Trypanosoma brucei REL1 [1] = molecular target: T1, Trypanosoma brucei REL1 (Trypanosoma brucei brucei, UniProt P86926); test: biochemical; format: biochemical
T1 construct: made in house; host or cells: Escherichia coli BL21 (DE3), polycistronic pET-21d construct
Protocol: Substrate RNAs were annealed in the presence of 25 mM KCl, 12.5 mM Tris–HCl pH 8.0, 5 mM Mg(OAc)2 and 0.25 mM DTT at a concentration of 1 μM in 10-ml batches by incubation at 70°C for 10 min, followed by slow cooling to room temperature. Annealed substrate was stored at −80°C. For 2400 assays, 2.4 μl 100 mM ATP were added to 12 ml pre-annealed substrate and 5 μl of the mixture dispensed into each well of a 384-well assay plate (Greiner 788075). A total of 50 nl of LOPAC (Sigma-Aldrich; 2 mM in DMSO) or Maybridge Hitfinder (Thermo Fisher Scientific; 2 mM in DMSO) compounds were added per well using a Biomek FX instrument. Recombinant REL1 was diluted in 10% (v/v) glycerol, 300 mM NaCl, 2 mM DTT and 20 mM Tris–HCl pH 6.0 to a final concentration of 300 ng/μl. One hundred twenty microliter REL1 solution were added to 11.88 ml ligation buffer (5 mM KCl; 12.5 mM Tris–HCl pH 6.0; 1 mM Mg(OAc)2; 0.25 mM DTT, 0.2% (w/v) Triton X-100; 0.003% (w/v) Brij 35) and 5 μl of the REL1/ligation buffer mix were added to each well to start the reaction ([…] REL1 per well). A total of 50 μM NSC-42067 served as positive control for inhibition ([34]). As additional controls, each plate included reactions without inhibitor and reactions without REL1. After 30 min incubation at room temperature the reaction was stopped by adding 12.5 μl STOP solution (9 M urea; 20 mM EDTA). After a minimum incubation period of 15 min plates were read using a ratiometric wavelength read (excitation at 485 nm, detection at 665 and 535 nm). HTS was carried out at The Scripps Research Institute, San Diego, CA, USA.
To validate the suitability of the FRET-based REL1 activity assay for HTS, the assay conditions were adapted to 384-well format to facilitate a pilot screen. An ATP concentration of 10 μM was chosen as a compromise between sensitivity to inhibition and robust S:B ratio.
Figure 5. […] Data were plotted as% inhibition compared to controls without inhibitor and fitted to a sigmoidal curve. […] All experiments were carried out under optimized conditions, and means and standard deviations for three replicates are shown.

Trypanosoma brucei REL1 [2] = molecular target: T1, Trypanosoma brucei REL1; test: Non-denaturing PAGE of RNA ligation reaction by REL1; format: biochemical; settings: increasing concentrations of compound, optimized conditions, Figure S4
Protocol: After ligation reaction, 20% (w/v) polyacrylamide gels were used to separate the RNA molecules by non-denaturing PAGE in Tris-borate-EDTA (TBE) buffer. For denaturing PAGE, gels contained 7 M urea. Gels were analyzed using a Typhoon FLA 7000 (GE Healthcare).
Figure S4. Non-denaturing PAGE showing inhibition of RNA ligation reaction by compound NSC42067. Lanes 1, 2 and 3 were loaded with the 16-nt 6-FAM 5’-RNA substrate, the 13-nt Cy5 3’- RNA substrate and a 29-nt dual 6-FAM/Cy5-labelled DNA oligo, respectively. Lane 4 was left empty.
Lanes 5 to 8 show products from standard reaction conditions and controls. Lanes 9 to 11 show the effects of increasing concentrations of NSC42067 in the assay. Ligation reactions were carried out under optimized conditions. The gel analysis confirmed the following:
Lanes 1 - 3: See Supplementary Figure S1.
Lanes 5 to 7: As before (compare Supplementary Figure S1), incubation of 5’- and 3’-RNAs with […]
The intensity of both bands increased with longer incubation time (compare lane 6 = 5 min with lane 7 = 30 min) and was dependent on the presence of REL1 (lane 5).
Figure S5. Structures of the hit compounds selected for validation.
Figure S6. Scatter plot showing the results of the second pilot screen. Compounds of the Maybridge library were incubated at 10 µM concentration in 384-well plates with REL1 (7.8 nM) in the presence […]
Stop buffer was added after 30 min. […]

T. brucei gambiense = tested on: T. brucei gambiense; design: method as in PMID 14982785; settings: in vitro; cited from earlier work
human hemopoietic cells = settings: cited from earlier work
[3] = single-shot HTS, 10 μM final compound concentration, 10 μM ATP, as suggested by HTS
[4] = dose-response curves, HTS/optimized assay conditions, 10 μM ATP, influenced by unknown percentage of active protein
[5] = dose-response curves, HTS/optimized assay conditions, 10 μM ATP, influenced by unknown percentage of active protein, read-out: IC50

T1 sequence (P86926 51-469): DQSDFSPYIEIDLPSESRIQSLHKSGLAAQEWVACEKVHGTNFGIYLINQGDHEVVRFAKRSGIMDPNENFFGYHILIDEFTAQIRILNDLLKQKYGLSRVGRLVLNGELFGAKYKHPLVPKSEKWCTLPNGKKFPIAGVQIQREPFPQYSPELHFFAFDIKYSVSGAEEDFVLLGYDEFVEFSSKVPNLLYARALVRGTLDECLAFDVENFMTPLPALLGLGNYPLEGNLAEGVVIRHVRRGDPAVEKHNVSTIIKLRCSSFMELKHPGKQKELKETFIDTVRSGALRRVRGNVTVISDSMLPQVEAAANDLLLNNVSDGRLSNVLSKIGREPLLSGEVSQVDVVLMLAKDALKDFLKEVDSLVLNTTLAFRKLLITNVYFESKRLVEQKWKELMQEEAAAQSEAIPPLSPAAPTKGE

| Structure (SMILES) | Inhibition at 10 μM (Trypanosoma brucei REL1 [1]; read-out: Inhibition at 10 μM) [%] | Inhibition at 10 μM (Trypanosoma brucei REL1 [1]; [3]) [%] | other results |
| --- | --- | --- | --- |
| CSc1nc(N)c2ncn([C@@H]3O[C@H](COP(=O)(O)OP(=O)(O)O)[C@@H](O)[C@H]3O)c2n1 [2-(Methylthio)adenosine 5′-diphosphate trisodium salt hydrate] | 22 | – | – |
| Nc1nc(Cl)nc2c1ncn2[C@@H]1O[C@H](COP(=O)(O)OP(=O)(O)OP(=O)(O)O)[C@@H](O)[C@H]1O [2-Chloroadenosine triphosphate tetrasodium hydrate] | 18 | – | – |
| Cn1c(=O)c2[nH]c(-c3ccc(S(=O)(=O)O)cc3)nc2n(C)c1=O [8-(p-Sulfophenyl)theophylline hydrate] | 23 | – | – |
| CC(=O)OC[C@H]1O[C@@H]([S-])[C@H](OC(C)=O)[C@@H](OC(C)=O)[C@@H]1OC(C)=O.CCP(CC)CC.[Au+] [Auranofin] | – | 24 | – |
| OC[C@H]1O[C@H]([S-])[C@H](O)[C@@H](O)[C@@H]1O.[Au+] [Aurothioglucose hydrate] | – | 93 | IC50 (μM) (Trypanosoma brucei REL1 [1]; [4]): low μM range; pIC50 (Trypanosoma brucei REL1 [1]; [5]): 4.92 |
| NC(=O)c1cc[n+](CC2=C(C(=O)[O-])N3C(=O)[C@@H](NC(=O)[C@@H](c4ccccc4)S(=O)(=O)[O-])[C@H]3SC2)cc1.[Na+] [Cefsulodin sodium salt hydrate] | – | 46 | – |
| CC(=O)OCC1=C(C(=O)[O-])N2C(=O)[C@@H](NC(=O)CCC[C@@H](N)C(=O)[O-])[C@H]2SC1.[Zn+2] [Cephalosporin C zinc salt] | – | 21 | – |
| CC(C)NC(C)Cc1ccc(I)cc1 (stereo not shown) [Iofetamine hydrochloride] | 70 | – | – |
| NC(N)=NOCC[C@H](N)C(=O)O [L-Canavanine] | 46 | – | – |
| O=C(O)/C(=C/c1c(C(=O)O)[nH]c2cc(Cl)cc(Cl)c12)c1ccccc1 [MDL 105,519] | – | 18 | – |
| O=[N+]([O-])/C=C/c1ccc2c(c1)OCO2 [MNS] | – | 22 | – |
| CN(N=O)c1ccc(O)c(O)c1 [Methyl-3,4-dephostatin] | – | 97 | pIC50 (Trypanosoma brucei REL1 [1]; [5]): < 4.30; Inhibition in dose-response curve (Trypanosoma brucei REL1 [1]; up to 50 μM concentration): no significant inhibition |
| O.O=c1c(O)c(-c2ccc(O)cc2O)oc2cc(O)cc(O)c12 [Morin hydrate] | – | 17 | – |
| O=c1c(O)c(-c2cc(O)c(O)c(O)c2)oc2cc(O)cc(O)c12 [Myricetin] | 100 | – | pIC50 (Trypanosoma brucei REL1 [1]): 5.75; IC50 (μM) (Trypanosoma brucei REL1 [1]; [4]): low μM range |
| O=C(Nc1cccc(C(=O)Nc2ccc(S(=O)(=O)[O-])c3cc(S(=O)(=O)[O-])cc(S(=O)(=O)[O-])c23)c1)Nc1cccc(C(=O)Nc2ccc(S(=O)(=O)[O-])c3cc(S(=O)(=O)[O-])cc(S(=O)(=O)[O-])c23)c1.[Na+].[Na+].[Na+].[Na+].[Na+].[Na+] [NF 023 hydrate] | – | 79 | IC50 (μM) (Trypanosoma brucei REL1 [1]; [4]): low μM range; pIC50 (Trypanosoma brucei REL1 [1]; [5]): 5.71 |
| O=C(O)c1cc(O)c(O)c(OC(=O)c2cc(O)c(O)c(O)c2CNc2ccc3cc(S(=O)(=O)O)cc(S(=O)(=O)O)c3c2)c1 [NSC42067] | – | – | Effect on formation of the ligation product (gel) (Trypanosoma brucei REL1 [2]): inhibit formation of the ligation product; pIC50 (Trypanosoma brucei REL1 [1]; [5]): 5.85 |
| C#CCN[C@H](C)Cc1ccccc1.Cl [R-(–)-Desmethyldeprenyl hydrochloride] | – | 38 | – |
| Cc1ccc(C(=O)Nc2ccc(S(=O)(=O)O)c3cc(S(=O)(=O)O)cc(S(=O)(=O)O)c23)cc1NC(=O)c1cccc(NC(=O)Nc2cccc(C(=O)Nc3cc(C(=O)Nc4ccc(S(=O)(=O)O)c5cc(S(=O)(=O)O)cc(S(=O)(=O)O)c45)ccc3C)c2)c1 [Suramin sodium salt] | 66 | – | pIC50 (Trypanosoma brucei REL1 [1]): 5.53; IC50 (μM) (Trypanosoma brucei REL1 [1]; [4]): low μM range |
| N#C/C(=C\c1ccc(O)c(O)c1)C(=O)NCCCNC(=O)/C(C#N)=C/c1ccc(O)c(O)c1 [Tyrphostin AG 537] | – | 93 | IC50 (μM) (Trypanosoma brucei REL1 [1]; [4]): low μM range; pIC50 (Trypanosoma brucei REL1 [1]; [5]): 6.60 |
| CC(C)N(CCC(=O)c1ccc2ccccc2c1)Cc1ccccc1.Cl [ZM 39923 hydrochloride] | – | 26 | – |
| N.N.[Cl][Pt][Cl] [cis-Diammineplatinum(II) dichloride] | – | 14 | – |
| O=c1c(O)c(-c2ccc(O)c(O)c2)oc2cc(O)cc(O)c12 [quercertin] | – | – | LD50 (T. brucei gambiense): 10 µM; Effect on human hemopoietic cells (human hemopoietic cells): without affecting human hemopoietic cells |
| CC1(C)CCC2=C(O1)c1ccccc1C(=O)C2=O [β-Lapachone] | 48 | – | – |

From article PMC4756849, “A novel high-throughput activity assay for the Trypanosoma brucei editosome enzyme REL1 and other RNA ligases” (Nucleic Acids Research, 2015)
